Results: ChEMBL document CHEMBL1157845, “Structure-activity relationship of new anti-tuberculosis agents derived from oxazoline and oxazole benzyl esters” (Eur J Med Chem, 2010)
Converted amounts (≈) assume the structure as drawn. The source made the active and inactive calls. Unless noted, the calls are words filed in the database; no cut-off is given here.

Experiments:
Vero = assay: Cytotoxicity against african green monkey Vero cells by colorimetric assay; format: cell-based; details: Chlorocebus sabaeus
[1] = tested on: Mycobacterium tuberculosis; assay: Antimycobacterial activity against Mycobacterium tuberculosis Erdman infected in BALB/c mouse assessed as reduction of bacterial load at 200 mg/kg, po qd for 5 days per week administered 60 days after infection measured after 85 days post infection; format: functional, organism-based; set-up: dose 200 mg/kg
[2] = tested on: Mycobacterium tuberculosis; assay: Antimycobacterial activity against Mycobacterium tuberculosis H37Rv ATCC 27294 in GAS medium after 1 week by microplate alamar blue assay; format: functional; details: H37Rv ATCC 27294, 168 h
[3] = tested on: Mycobacterium tuberculosis; assay: Antimycobacterial activity against Mycobacterium tuberculosis H37Rv ATCC 27294 incubated 10 days under anaerobic condition measured after 24 hrs recovery in air by luciferase based low oxygen recovery assay; format: functional
[4] = tested on: Mycobacterium tuberculosis; assay: Antimycobacterial activity against Mycobacterium tuberculosis H37Rv ATCC 27294 in GAST medium after 1 week by microplate alamar blue assay; format: functional; details: H37Rv ATCC 27294, 168 h
[5] = tested on: Mycolicibacterium fortuitum; assay: Antimycobacterial activity against Mycobacterium fortuitum B by agar diffusion assay; format: functional, organism-based
Mycobacterium avium [6] = assay: Antimycobacterial activity against Mycobacterium avium MAC 108; format: functional, organism-based
Candida albicans = assay: Antifungal activity against Candida albicans; format: functional, organism-based
Mus musculus [7] = assay: Toxicity in mouse assessed as change in gross appearance at 100 mg/kg, po qd for 5 days followed by 2 days rest and 200 mg/kg, po qd for 5 days; format: organism-based; details: in vivo
Staphylococcus aureus = assay: Antibacterial activity against Staphylococcus aureus SG 511; format: functional, organism-based
Mycobacterium avium [8] = assay: Antimycobacterial activity against Mycobacterium avium MAC 101; format: functional, organism-based
Mycobacterium avium [9] = assay: Antimycobacterial activity against Mycobacterium avium MAC 109; format: functional, organism-based
[10] = tested on: Mycolicibacterium fortuitum; assay: Antimycobacterial activity against Mycobacterium fortuitum B; format: functional, organism-based
Mycolicibacterium vaccae [11] = assay: Antimycobacterial activity against Mycobacterium vaccae 10670; format: functional, organism-based
Proteus vulgaris = assay: Antibacterial activity against Proteus vulgaris OX 19; format: functional, organism-based
Bacillus subtilis = assay: Antibacterial activity against Bacillus subtilis ATCC 6633; format: functional, organism-based
Mycolicibacterium vaccae [12] = assay: Antimycobacterial activity against Mycobacterium vaccae 10670 by agar diffusion assay; format: functional, organism-based
Mus musculus [13] = assay: Toxicity in mouse assessed as behavioral change at 100 mg/kg, po qd for 5 days followed by 2 days rest and 200 mg/kg, po qd for 5 days; format: organism-based; details: in vivo
Micrococcus luteus = assay: Antibacterial activity against Micrococcus luteus ATCC 10240; format: functional, organism-based
Liver microsomes = assay: Metabolic stability in Sprague-Dawley rat microsomes assessed as compound remaining after 15 mins by HPLC analysis; format: ADME, Microsome; details: 0.25 h
Mycobacterium avium [14] = assay: Antimycobacterial activity against Mycobacterium avium MAC 116; format: functional, organism-based
Mycolicibacterium aurum [15] = assay: Antimycobacterial activity against Mycobacterium aurum SB 66; format: functional, organism-based
Mus musculus [16] = assay: Toxicity in mouse assessed as change in body weight at 100 mg/kg, po qd for 5 days followed by 2 days rest and 200 mg/kg, po qd for 5 days; format: organism-based; details: in vivo
Colletotrichum = assay: Antifungal activity against Glomerella; format: functional, organism-based
Mycolicibacterium aurum [17] = assay: Antimycobacterial activity against Mycobacterium aurum DSM 43536; format: functional, organism-based
[18] = Chemical stability in simulated gastric fluid assessed as compound remaining after 2 hrs by HPLC analysis; format: physicochemical; details: simulated gi fluid
Escherichia coli = assay: Antibacterial activity against Escherichia coli SG 458; format: functional, organism-based
[19] = tested on: Mycolicibacterium smegmatis; assay: Antimycobacterial activity against Mycobacterium smegmatis SG 987; format: functional, organism-based
Mycobacterium avium [20] = assay: Antimycobacterial activity against Mycobacterium avium MAC 100; format: functional, organism-based
[21] = tested on: Sporobolomyces salmonicolor; assay: Antimicrobial activity against Sporobolomyces salmonicolor SBUG 549; format: functional, organism-based

With `O=C(OCc1ccccc1)c1coc(-c2cncc(Br)c2)n1` the IC50 (Vero) was > 128 µM, the Activity [1] was “inactive” and the MIC [2] was 2.37 µM (≈ 0.851 µg/mL). The MIC [3] was > 128 µM and the MIC [4] was 2.24 µM (≈ 0.805 µg/mL).
In the case of `Cc1oc(-c2ccccc2)nc1C(=O)OCc1ccccc1`, the IC50 (Vero) is reported as 35 µM, the Activity [1] is reported as “inactive” and the MIC [2] is reported as 3.92 µM (≈ 1.15 µg/mL). For the same compound, the MIC [3] was > 128 µM and the MIC [4] was 15.2 µM (≈ 4.46 µg/mL).
For `O=C(OCc1ccccc1)c1coc(-c2ccc([N+](=O)[O-])cc2F)n1`, the IC50 (Vero) was > 128 µM, the Activity [1] was “inactive” and the MIC [2] was 0.7 µM (≈ 0.24 µg/mL). For the same compound, the MIC [3] was 11.6 µM (≈ 3.97 µg/mL) and the MIC [4] was 1.65 µM (≈ 0.565 µg/mL).
In the case of `O=C(OCc1ccccc1)c1coc(-c2ccc(Br)nc2)n1`, the IC50 (Vero) is reported as > 128 µM, the Activity [1] is reported as “inactive” and the MIC [2] is reported as 2.54 µM (≈ 0.912 µg/mL). The MIC [3] was 25.1 µM (≈ 9.02 µg/mL) and the MIC [4] was 1.84 µM (≈ 0.661 µg/mL).
For `O=C(OCc1ccccc1)c1coc(-c2cncc(-c3ccccc3)c2)n1`, the IC50 (Vero) was > 128 µM, the Activity [1] was “inactive” and the MIC [2] was 1.49 µM (≈ 0.531 µg/mL). It also gave an MIC [4] of 0.98 µM (≈ 0.349 µg/mL).
For `O=C(OCc1ccccc1)c1coc(-c2ccc(F)cc2[N+](=O)[O-])n1`, the IC50 (Vero) was > 128 µM, the Activity [1] was “inactive” and the MIC [2] was 2.4 µM (≈ 0.821 µg/mL). The MIC [4] was 9.9 µM (≈ 3.39 µg/mL).
In the case of `O=C(OCc1ccccc1)[C@@H]1COC(c2ccc(F)c([N+](=O)[O-])c2)=N1`, the Activity [5] is reported as “Active”, the IC50 (Vero) is reported as > 128 µM and the Activity (Mycobacterium avium [6]) is reported as “inactive”. For the same compound, the Activity (Candida albicans) was “inactive”, the Activity (Mus musculus [7]) was “Non-toxic” and the Activity (Staphylococcus aureus) was “inactive”. The Activity [1] was “inactive”, the Activity (Mycobacterium avium [8]) was “inactive” and the Activity (Mycobacterium avium [9]) was “inactive”. For the same compound, the MIC [2] was 6.24 µM (≈ 2.15 µg/mL), the Activity [10] was “inactive” and the Activity (Mycolicibacterium vaccae [11]) was “inactive”. The Activity (Proteus vulgaris) was “inactive”, the Activity (Bacillus subtilis) was “inactive” and the Activity (Mycolicibacterium vaccae [12]) was “Active”. The Activity (Mus musculus [13]) was “Non-toxic”, the Activity (Micrococcus luteus) was “inactive” and the MIC [3] was 26 µM (≈ 8.95 µg/mL). For the same compound, the Stability (Liver microsomes) was 13%, the Activity (Mycobacterium avium [14]) was “inactive” and the Activity (Mycolicibacterium aurum [15]) was “inactive”. The Activity (Mus musculus [16]) was “Non-toxic”, the Activity (Colletotrichum) was “inactive” and the Activity (Mycolicibacterium aurum [17]) was “inactive”. For the same compound, the MIC [4] was 0.95 µM (≈ 0.327 µg/mL), the Stability [18] was 2.2% and the Activity (Escherichia coli) was “inactive”. For the same compound, the Activity [19] was “inactive”, the Activity (Mycobacterium avium [20]) was “inactive” and the Activity [21] was “inactive”.
In the case of `O=C(OCc1ccccc1)c1coc(-c2cccc(Cl)c2)n1`, the IC50 (Vero) is reported as > 128 µM, the Activity [1] is reported as “inactive” and the MIC [2] is reported as 1.25 µM (≈ 0.392 µg/mL). It also gave an MIC [4] of 0.99 µM (≈ 0.311 µg/mL).
In the case of `O=C(OCc1ccccc1)c1coc(-c2cccc(F)c2)n1`, the IC50 (Vero) is reported as > 128 µM, the Activity [1] is reported as “inactive” and the MIC [2] is reported as 0.91 µM (≈ 0.271 µg/mL). For the same compound, the MIC [4] was 1.42 µM (≈ 0.422 µg/mL).
With `COc1ccc(-c2nc(C(=O)OCc3ccccc3)co2)cc1Cl` the IC50 (Vero) was > 128 µM, the Activity [1] was “inactive” and the MIC [2] was 2.35 µM (≈ 0.808 µg/mL). For the same compound, the MIC [4] was 5.33 µM (≈ 1.83 µg/mL).
In the case of `Cc1oc(-c2ccccc2OCc2ccccc2)nc1C(=O)OCc1ccccc1`, the IC50 (Vero) is reported as 110 µM, the Activity [1] is reported as “inactive” and the MIC [2] is reported as 28.3 µM (≈ 11.3 µg/mL). For the same compound, the MIC [4] was > 128 µM.
For `COc1ccc(-c2nc(C(=O)OCc3ccccc3)co2)cc1F`, the IC50 (Vero) was > 128 µM, the Activity [1] was “inactive” and the MIC [2] was 5.55 µM (≈ 1.82 µg/mL). The MIC [4] was 6.99 µM (≈ 2.29 µg/mL).
In the case of `COc1ccc(-c2nc(C(=O)OCc3ccccc3)co2)cc1`, the Activity [5] is reported as “Active”, the IC50 (Vero) is reported as > 128 µM and the Activity (Mycobacterium avium [6]) is reported as “inactive”. For the same compound, the Activity (Candida albicans) was “inactive”, the Activity (Mus musculus [7]) was “Non-toxic” and the Activity (Staphylococcus aureus) was “inactive”. The Activity [1] was “inactive”, the Activity (Mycobacterium avium [8]) was “inactive” and the Activity (Mycobacterium avium [9]) was “inactive”. For the same compound, the MIC [2] was 1.72 µM (≈ 0.532 µg/mL), the Activity [10] was “inactive” and the Activity (Mycolicibacterium vaccae [11]) was “inactive”. The Activity (Proteus vulgaris) was “inactive”, the Activity (Bacillus subtilis) was “inactive” and the Activity (Mycolicibacterium vaccae [12]) was “Active”. The Activity (Mus musculus [13]) was “Non-toxic”, the Activity (Micrococcus luteus) was “inactive” and the Stability (Liver microsomes) was 14%. For the same compound, the Activity (Mycobacterium avium [14]) was “inactive”, the Activity (Mycolicibacterium aurum [15]) was “inactive” and the Activity (Mus musculus [16]) was “Non-toxic”. The Activity (Colletotrichum) was “inactive”, the Activity (Mycolicibacterium aurum [17]) was “inactive” and the MIC [4] was 1.8 µM (≈ 0.557 µg/mL). The Stability [18] was 0.4%, the Activity (Escherichia coli) was “inactive” and the Activity [19] was “inactive”. The Activity (Mycobacterium avium [20]) was “inactive” and the Activity [21] was “inactive”.
For `O=C(OCc1ccccc1)c1coc(-c2cccnc2Oc2ccccc2)n1`, the Activity [1] was “inactive”, the MIC [2] was 6.86 µM (≈ 2.55 µg/mL) and the MIC [4] was 91.4 µM (≈ 34 µg/mL).
